Converted amounts (≈) assume the structure as drawn. A value given as a limit tells only on which side of the number the result lay.

The results in this text go back to ChEMBL document CHEMBL1156319, “Synthesis, crystal and antibacterial studies of diversely functionalized tetrahydropyridin-4-ol” (2010).

Common to all, as to assay type: functional
One assay deals with Enterococcus faecalis. Briefly: Antibacterial activity against Enterococcus faecalis LCB0005 by two fold serial dilution method.
For another assay, the system named is Klebsiella pneumoniae. The assay can be described thus: Antibacterial activity against Klebsiella pneumoniae LCB0014 by two fold serial dilution method.
A further assay relates to Enterococcus faecium. The assay can be described thus: Antibacterial activity against Enterococcus faecium LCB0009 by two fold serial dilution method.
A further assay concerns Moraxella catarrhalis. The assay can be described thus: Antibacterial activity against Moraxella catarrhalis LCB0016 by two fold serial dilution method.
A further assay relates to Pseudomonas aeruginosa. Briefly: Antibacterial activity against Pseudomonas aeruginosa LCB0013 by two fold serial dilution method.
Assay [1] has as its system Escherichia coli. Briefly: Antibacterial activity against Escherichia coli LCB0011 by two fold serial dilution method.
For the next assay, the system named is Staphylococcus aureus. The assay can be described thus: Antibacterial activity against Staphylococcus aureus LCB0001 by two fold serial dilution method.
For assay [2], the system named is Staphylococcus epidermidis. Briefly: Antibacterial activity against Staphylococcus epidermidis LCB0003 by two fold serial dilution method.
The test system of assay [3] is Escherichia coli. The assay can be described thus: Antibacterial activity against Escherichia coli LCB0010 by two fold serial dilution method.
The next assay concerns Haemophilus influenzae. Briefly: Antibacterial activity against Haemophilus influenzae LCB0015 by two fold serial dilution method.
Assay [4] relates to Escherichia coli. The assay can be described thus: Antibacterial activity against Escherichia coli LCB0012 by two fold serial dilution method.

Take `CCOC(=O)C1=C(O)CC(c2ccccc2)N(C(=O)c2ccccc2)C1c1ccccc1` (stereo not drawn): the MIC90 in the assay on Enterococcus faecalis, against Klebsiella pneumoniae, against Enterococcus faecium, in the assay on Moraxella catarrhalis, in the assay on Pseudomonas aeruginosa and against Escherichia coli [1] was more than 128 µg/mL each time. Besides, the MIC90 with Staphylococcus aureus was more than 128 µg/mL; in assay [2] it was more than 128 µg/mL; with Escherichia coli [3], more than 128 µg/mL; against Haemophilus influenzae, more than 128 µg/mL; in the assay with Escherichia coli [4], 64 µg/mL (≈ 150 µM).
Regarding `CCOC(=O)C1=C(O)CC(c2ccccc2)N(C(=O)CN2CCCCC2)C1c1ccccc1` (stereo not drawn), the MIC90 in the assay on Enterococcus faecalis was more than 128 µg/mL; in the assay with Klebsiella pneumoniae it was more than 128 µg/mL; in the assay with Enterococcus faecium it was 128 µg/mL (≈ 285 µM); against Moraxella catarrhalis, 32 µg/mL (≈ 71.3 µM); against Pseudomonas aeruginosa it was more than 128 µg/mL; against Escherichia coli [1] it was more than 128 µg/mL. The MIC90 against Staphylococcus aureus was more than 128 µg/mL; in assay [2], more than 128 µg/mL; in the assay on Escherichia coli [3], more than 128 µg/mL; with Haemophilus influenzae, more than 128 µg/mL; with Escherichia coli [4], 64 µg/mL (≈ 143 µM).
For the molecule `CCOC(=O)C1=C(O)CC(c2ccccc2)N(C(=O)Cn2ccc3ccccc32)C1c1ccccc1` (stereo not drawn), the MIC90 against Enterococcus faecalis is more than 128 µg/mL; against Klebsiella pneumoniae it was more than 128 µg/mL; against Enterococcus faecium, more than 128 µg/mL; against Moraxella catarrhalis, 32 µg/mL (≈ 66.6 µM); in the assay on Pseudomonas aeruginosa, more than 128 µg/mL; against Escherichia coli [1] it was more than 128 µg/mL. Besides, the MIC90 (against Staphylococcus aureus; in assay [2]; in the assay with Escherichia coli [3]; against Haemophilus influenzae; against Escherichia coli [4]) was more than 128 µg/mL throughout.
For `CCOC(=O)C1=C(O)CC(c2ccccc2)N(C(=O)Cn2ccnc2)C1c1ccccc1` (stereo not drawn), the MIC90 with Enterococcus faecalis is more than 128 µg/mL; with Klebsiella pneumoniae it was more than 128 µg/mL; in the assay with Enterococcus faecium it was more than 128 µg/mL; in the assay with Moraxella catarrhalis, 64 µg/mL (≈ 148 µM); in the assay on Pseudomonas aeruginosa it was more than 128 µg/mL; in the assay on Escherichia coli [1], more than 128 µg/mL. The MIC90 in the assay with Staphylococcus aureus was 128 µg/mL (≈ 297 µM); in assay [2] it was more than 128 µg/mL; in the assay with Escherichia coli [3] it was more than 128 µg/mL; with Haemophilus influenzae, more than 128 µg/mL; in the assay on Escherichia coli [4], 64 µg/mL (≈ 148 µM).
For `CCOC(=O)C1=C(O)CC(c2ccccc2)N(C(=O)CN2CCN(C)CC2)C1c1ccccc1` (stereo not drawn), the MIC90 was more than 128 µg/mL with Enterococcus faecalis; more than 128 µg/mL with Klebsiella pneumoniae; 128 µg/mL (≈ 276 µM) in the assay with Enterococcus faecium; 32 µg/mL (≈ 69 µM) against Moraxella catarrhalis; more than 128 µg/mL against Pseudomonas aeruginosa; more than 128 µg/mL against Escherichia coli [1]. Besides, the MIC90 (with Staphylococcus aureus; in assay [2]; in the assay with Escherichia coli [3]; in the assay on Haemophilus influenzae; against Escherichia coli [4]) was more than 128 µg/mL each time.
`CCOC(=O)C1=C(O)CC(c2ccccc2)N(C(=O)CN2CCSCC2)C1c1ccccc1` (stereo not drawn): the MIC90 is more than 128 µg/mL in the assay on Enterococcus faecalis; more than 128 µg/mL in the assay on Klebsiella pneumoniae; more than 128 µg/mL with Enterococcus faecium; 64 µg/mL (≈ 137 µM) against Moraxella catarrhalis; more than 128 µg/mL against Pseudomonas aeruginosa; more than 128 µg/mL in the assay with Escherichia coli [1]. Besides, the MIC90 (in the assay with Staphylococcus aureus; in assay [2]; against Escherichia coli [3]; against Haemophilus influenzae; in the assay with Escherichia coli [4]) was more than 128 µg/mL throughout.
Regarding `CCOC(=O)C1=C(O)CC(c2ccccc2)N(C(=O)CN2CCOCC2)C1c1ccccc1` (stereo not drawn), the MIC90 is more than 128 µg/mL with Enterococcus faecalis; more than 128 µg/mL with Klebsiella pneumoniae; more than 128 µg/mL against Enterococcus faecium; 64 µg/mL (≈ 142 µM) against Moraxella catarrhalis; more than 128 µg/mL against Pseudomonas aeruginosa; more than 128 µg/mL with Escherichia coli [1]. Moreover, the MIC90 (in the assay on Staphylococcus aureus; in assay [2]; with Escherichia coli [3]; against Haemophilus influenzae; with Escherichia coli [4]) was more than 128 µg/mL throughout.
With `CCOC(=O)C1=C(O)CC(c2ccccc2)N(C(=O)CN2CCC(=O)CC2)C1c1ccccc1` (stereo not drawn), the MIC90 against Enterococcus faecalis is more than 128 µg/mL; against Klebsiella pneumoniae, more than 128 µg/mL; against Enterococcus faecium, more than 128 µg/mL; in the assay with Moraxella catarrhalis, 64 µg/mL (≈ 138 µM); against Pseudomonas aeruginosa, more than 128 µg/mL; against Escherichia coli [1], more than 128 µg/mL. For the same molecule, the MIC90 (against Staphylococcus aureus; in [2]; against Escherichia coli [3]; against Haemophilus influenzae; in the assay on Escherichia coli [4]) was more than 128 µg/mL throughout.
Take `CCOC(=O)C1=C(O)CC(c2ccccc2)N(C(=O)Cn2nnc(-c3ccccc3)n2)C1c1ccccc1` (stereo not drawn): the MIC90 in the assay on Enterococcus faecalis was more than 128 µg/mL; against Klebsiella pneumoniae it was more than 128 µg/mL; with Enterococcus faecium, 128 µg/mL (≈ 251 µM); with Moraxella catarrhalis it was more than 128 µg/mL; against Pseudomonas aeruginosa, more than 128 µg/mL; in the assay on Escherichia coli [1] it was more than 128 µg/mL. Moreover, the MIC90 (against Staphylococcus aureus; in assay [2]; with Escherichia coli [3]; in the assay on Haemophilus influenzae; in the assay with Escherichia coli [4]) was more than 128 µg/mL throughout.
For `CCOC(=O)C1=C(O)CC(c2ccccc2)N(C(=O)Cn2nnc3ccccc32)C1c1ccccc1` (stereo not drawn), the MIC90 in the assay with Enterococcus faecalis is more than 128 µg/mL; in the assay with Klebsiella pneumoniae, more than 128 µg/mL; in the assay with Enterococcus faecium, 64 µg/mL (≈ 133 µM); against Moraxella catarrhalis, more than 128 µg/mL; with Pseudomonas aeruginosa, more than 128 µg/mL; in the assay with Escherichia coli [1], more than 128 µg/mL. Besides, the MIC90 (against Staphylococcus aureus; in assay [2]; in the assay on Escherichia coli [3]; in the assay with Haemophilus influenzae; with Escherichia coli [4]) was more than 128 µg/mL each time.
For `CCOC(=O)C1=C(O)CC(c2ccccc2)N(C(=O)COc2ccc3ccccc3c2)C1c1ccccc1` (stereo not drawn), the MIC90 is more than 128 µg/mL against Enterococcus faecalis; more than 128 µg/mL in the assay with Klebsiella pneumoniae; 128 µg/mL (≈ 252 µM) in the assay with Enterococcus faecium; more than 128 µg/mL against Moraxella catarrhalis; more than 128 µg/mL with Pseudomonas aeruginosa; more than 128 µg/mL in the assay on Escherichia coli [1]. In addition, the MIC90 (in the assay on Staphylococcus aureus; in assay [2]; in the assay with Escherichia coli [3]; in the assay on Haemophilus influenzae; against Escherichia coli [4]) was more than 128 µg/mL in each case.
For `CCOC(=O)C1=C(O)CC(c2ccccc2)N(C(=O)C(C)n2cnc3ccccc32)C1c1ccccc1` (stereo not drawn), the MIC90 against Enterococcus faecalis, with Klebsiella pneumoniae, in the assay with Enterococcus faecium, against Moraxella catarrhalis, with Pseudomonas aeruginosa and against Escherichia coli [1] was more than 128 µg/mL throughout. Besides, the MIC90 (in assay [2]; with Escherichia coli [3]; in the assay with Haemophilus influenzae; in the assay with Escherichia coli [4]) was more than 128 µg/mL each time.
In the case of `CCOC(=O)C1=C(O)CC(c2ccccc2)N(C(=O)CSc2nc3ccccc3o2)C1c1ccccc1` (stereo not drawn), the MIC90 in the assay on Enterococcus faecalis, in the assay on Klebsiella pneumoniae, with Enterococcus faecium, against Moraxella catarrhalis, in the assay with Pseudomonas aeruginosa and with Escherichia coli [1] was more than 128 µg/mL in each case. Also, the MIC90 (with Staphylococcus aureus; in assay [2]; against Escherichia coli [3]; against Haemophilus influenzae; in the assay with Escherichia coli [4]) was more than 128 µg/mL throughout.
For the molecule `CCOC(=O)C1=C(O)CC(c2ccccc2)N(C(=O)CSc2ccc3ccccc3c2)C1c1ccccc1` (stereo not drawn), the MIC90 with Enterococcus faecalis was more than 128 µg/mL; in the assay on Klebsiella pneumoniae, more than 128 µg/mL; against Enterococcus faecium, 128 µg/mL (≈ 244 µM); in the assay with Moraxella catarrhalis, more than 128 µg/mL; in the assay with Pseudomonas aeruginosa, more than 128 µg/mL; in the assay on Escherichia coli [1] it was more than 128 µg/mL. In addition, the MIC90 (in the assay on Staphylococcus aureus; in assay [2]; against Escherichia coli [3]; against Haemophilus influenzae; against Escherichia coli [4]) was more than 128 µg/mL each time.
